Patent publication US7612064B2, “Sulfopyrroles” (Takeda Pharmaceutical Company Limited, priority 2003, dated 2009)

Key:
HeLa = test: MTS proliferation assay; type: cell-based, human; conditions: 72 h
How it was run: (§1)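 Absorbance at 492 nm after a 3 h MTS incubation reports viable cell number. Before that, compounds at 10 μM, 3 μM, 1 μM and 0.3 μM final stay on the cells for 72 h at culture conditions.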

Jurkat = test: MTS proliferation assay; type: cell-based, human; conditions: 72 h
How it was run: as §1

Jily = test: MTS proliferation assay; type: cell-based; conditions: 72 h
How it was run: as §1

MRC5 = test: MTS proliferation assay; type: cell-based; conditions: MRC5, 72 h
How it was run: as §1

[1] = Hoechst 33342 nuclear staining; type: cell-based; conditions: for Hoechst 33342 nuclear staining score, H460: H460 cells; for Hoechst 33342 nuclear staining score, HeLa: HeLa cells; for Hoechst 33342 nuclear staining score, Jily: Jily cells; for Hoechst 33342 nuclear staining score, Jurkat: Jurkat cells; for Hoechst 33342 nuclear staining score, MRC5: MRC5 cells; for Hoechst 33342 nuclear staining score, PBLs: key: 0: no activity; 1: weak activity comprising less than 50% of the cells; 2: strong activity comprising more than 50% of the cells;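 for all read-outs here: apoptotic nuclei scored 0 none 1 weak under 50% of cells 2 strong over 50% of cells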
How it was run: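 Cells were plated in 96 well tissue culture plates in 80 μl complete medium, with 3-5*10^3 cells per well for adherent lines and 8-10*10^3 for suspension lines. Adherent cells spread for 24 h before treatment, while suspension cells were treated right after seeding. Compounds were added in 20 μl complete medium containing max 5% DMSO.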

Row | SMILES | IC50 (HeLa) | IC50 (Jurkat) | IC50 (Jily) | IC50 (MRC5) | Hoechst 33342 nuclear staining score, H460 ([1]; conc 0.1) | Hoechst 33342 nuclear staining score, H460 ([1]; conc 0.3) | Hoechst 33342 nuclear staining score, H460 ([1]; conc 1) | Hoechst 33342 nuclear staining score, H460 ([1]; conc 3) | Hoechst 33342 nuclear staining score, HeLa ([1]; conc 0.1) | Hoechst 33342 nuclear staining score, HeLa ([1]; conc 0.3) | Hoechst 33342 nuclear staining score, HeLa ([1]; conc 1) | Hoechst 33342 nuclear staining score, HeLa ([1]; conc 3) | Hoechst 33342 nuclear staining score, Jily ([1]; conc 0.1) | Hoechst 33342 nuclear staining score, Jily ([1]; conc 0.3) | Hoechst 33342 nuclear staining score, Jily ([1]; conc 1) | Hoechst 33342 nuclear staining score, Jily ([1]; conc 3) | Hoechst 33342 nuclear staining score, Jurkat ([1]; conc 0.1) | Hoechst 33342 nuclear staining score, Jurkat ([1]; conc 0.3) | Hoechst 33342 nuclear staining score, Jurkat ([1]; conc 1) | Hoechst 33342 nuclear staining score, Jurkat ([1]; conc 3) | further results
1 | COc1cc(-c2cc(-c3cccnc3)cn2S(=O)(=O)c2cn(C)cn2)cc(OC)c1OC [Example 87] | > 1 µM | > 1 µM | > 1 µM | > 1 µM | 0 | 0 | 0 | 0 | 0 | 0 | 0 | 0 | 0 | 0 | 0 | 0 | 0 | 0 | 0 | 0 | Hoechst 33342 nuclear staining score, MRC5 ([1]; conc 0.1): 0; Hoechst 33342 nuclear staining score, MRC5 ([1]; conc 0.3): 0; Hoechst 33342 nuclear staining score, MRC5 ([1]; conc 1): 0; Hoechst 33342 nuclear staining score, MRC5 ([1]; conc 3): 0; Hoechst 33342 nuclear staining score, PBLs ([1]; conc 0.1): 0; Hoechst 33342 nuclear staining score, PBLs ([1]; conc 0.3): 0; Hoechst 33342 nuclear staining score, PBLs ([1]; conc 1): 0; Hoechst 33342 nuclear staining score, PBLs ([1]; conc 3): 0
2 | COc1ccc(S(=O)(=O)n2cc(CNc3ccc(N4CCOCC4)cc3)cc2-c2cc(OC)ccc2OC)cc1 [Example 95] | > 1 µM | > 1 µM | > 1 µM | > 1 µM | 0 | 0 | 0 | 2 (strong activity comprising more than 50% of the cells) | 0 | 0 | 0 | 2 (strong activity comprising more than 50% of the cells) | 0 | 0 | 0 | 2 (strong activity comprising more than 50% of the cells) | 0 | 0 | 0 | 2 (strong activity comprising more than 50% of the cells) | Hoechst 33342 nuclear staining score, MRC5 ([1]; conc 0.1): 0; Hoechst 33342 nuclear staining score, MRC5 ([1]; conc 0.3): 0; Hoechst 33342 nuclear staining score, MRC5 ([1]; conc 1): 0; Hoechst 33342 nuclear staining score, MRC5 ([1]; conc 3): 0; Hoechst 33342 nuclear staining score, PBLs ([1]; conc 0.1): 0; Hoechst 33342 nuclear staining score, PBLs ([1]; conc 0.3): 0; Hoechst 33342 nuclear staining score, PBLs ([1]; conc 1): 0; Hoechst 33342 nuclear staining score, PBLs ([1]; conc 3): 0
3 | COc1cc(-c2cc(-c3cncc(C(=O)NC(C)CO)c3)cn2S(=O)(=O)c2ccc(C)cc2)cc(OC)c1OC.Cl (stereo not drawn) [Example 63] | < 1 µM | < 1 µM | < 1 µM | < 1 µM | 0 | 0 | 0 | 0 | 0 | 0 | 0 | 2 (strong activity comprising more than 50% of the cells) | 0 | 0 | 0 | 0 | 0 | 0 | 2 (strong activity comprising more than 50% of the cells) | 2 (strong activity comprising more than 50% of the cells) | Hoechst 33342 nuclear staining score, MRC5 ([1]; conc 0.1): 0; Hoechst 33342 nuclear staining score, MRC5 ([1]; conc 0.3): 0; Hoechst 33342 nuclear staining score, MRC5 ([1]; conc 1): 0; Hoechst 33342 nuclear staining score, MRC5 ([1]; conc 3): 0; Hoechst 33342 nuclear staining score, PBLs ([1]; conc 0.1): 0; Hoechst 33342 nuclear staining score, PBLs ([1]; conc 0.3): 0; Hoechst 33342 nuclear staining score, PBLs ([1]; conc 1): 0; Hoechst 33342 nuclear staining score, PBLs ([1]; conc 3): 0
4 | COc1cc(-c2cc(-c3cncc(C(=O)NCCN4CCOCC4)c3)cn2S(=O)(=O)c2ccc(C)cc2)cc(OC)c1OC.Cl [Example 64] | < 1 µM | < 1 µM | < 1 µM | < 1 µM | 0 | 0 | 2 (strong activity comprising more than 50% of the cells) | 2 (strong activity comprising more than 50% of the cells) | 0 | 0 | 2 (strong activity comprising more than 50% of the cells) | 2 (strong activity comprising more than 50% of the cells) | 0 | 0 | 2 (strong activity comprising more than 50% of the cells) | 2 (strong activity comprising more than 50% of the cells) | 0 | 0 | 2 (strong activity comprising more than 50% of the cells) | 2 (strong activity comprising more than 50% of the cells) | Hoechst 33342 nuclear staining score, MRC5 ([1]; conc 0.1): 0; Hoechst 33342 nuclear staining score, MRC5 ([1]; conc 0.3): 0; Hoechst 33342 nuclear staining score, MRC5 ([1]; conc 1): 2 (strong activity comprising more than 50% of the cells); Hoechst 33342 nuclear staining score, MRC5 ([1]; conc 3): 2 (strong activity comprising more than 50% of the cells); Hoechst 33342 nuclear staining score, PBLs ([1]; conc 0.1): 0; Hoechst 33342 nuclear staining score, PBLs ([1]; conc 0.3): 0; Hoechst 33342 nuclear staining score, PBLs ([1]; conc 1): 0; Hoechst 33342 nuclear staining score, PBLs ([1]; conc 3): 0
5 | COc1ccc(S(=O)(=O)n2cc(-c3ccc(N)nc3)cc2-c2ccc(OC)cc2OC)cc1 [Example 102] | > 1 µM | < 1 µM | < 1 µM | > 1 µM | 0 | 0 | 1 (weak activity comprising less than 50% of the cells) | 2 (strong activity comprising more than 50% of the cells) | 0 | 0 | 1 (weak activity comprising less than 50% of the cells) | 2 (strong activity comprising more than 50% of the cells) | 0 | 0 | 2 (strong activity comprising more than 50% of the cells) | 2 (strong activity comprising more than 50% of the cells) | 0 | 0 | 2 (strong activity comprising more than 50% of the cells) | 2 (strong activity comprising more than 50% of the cells) | Hoechst 33342 nuclear staining score, MRC5 ([1]; conc 0.1): 0; Hoechst 33342 nuclear staining score, MRC5 ([1]; conc 0.3): 0; Hoechst 33342 nuclear staining score, MRC5 ([1]; conc 1): 0; Hoechst 33342 nuclear staining score, MRC5 ([1]; conc 3): 2 (strong activity comprising more than 50% of the cells); Hoechst 33342 nuclear staining score, PBLs ([1]; conc 0.1): 0; Hoechst 33342 nuclear staining score, PBLs ([1]; conc 0.3): 0; Hoechst 33342 nuclear staining score, PBLs ([1]; conc 1): 0; Hoechst 33342 nuclear staining score, PBLs ([1]; conc 3): 0
6 | COc1ccc(S(=O)(=O)n2cc(CNc3ccc(N4CCOCC4)cc3)cc2-c2c(OC)cc(OC)cc2OC)cc1 [Example 99] | < 1 µM | < 1 µM | < 1 µM | > 1 µM | 0 | 0 | 2 (strong activity comprising more than 50% of the cells) | 2 (strong activity comprising more than 50% of the cells) | 0 | 0 | 2 (strong activity comprising more than 50% of the cells) | 2 (strong activity comprising more than 50% of the cells) | 0 | 0 | 2 (strong activity comprising more than 50% of the cells) | 2 (strong activity comprising more than 50% of the cells) | 0 | 0 | 2 (strong activity comprising more than 50% of the cells) | 2 (strong activity comprising more than 50% of the cells) | Hoechst 33342 nuclear staining score, MRC5 ([1]; conc 0.1): 0; Hoechst 33342 nuclear staining score, MRC5 ([1]; conc 0.3): 0; Hoechst 33342 nuclear staining score, MRC5 ([1]; conc 1): 1 (weak activity comprising less than 50% of the cells); Hoechst 33342 nuclear staining score, MRC5 ([1]; conc 3): 1 (weak activity comprising less than 50% of the cells); Hoechst 33342 nuclear staining score, PBLs ([1]; conc 0.1): 0; Hoechst 33342 nuclear staining score, PBLs ([1]; conc 0.3): 0; Hoechst 33342 nuclear staining score, PBLs ([1]; conc 1): 0; Hoechst 33342 nuclear staining score, PBLs ([1]; conc 3): 0
